Laboratory results as given in patent US11339161B2, “Triazolo pyridines as modulators of gamma-secretase” (Boehringer Ingelheim International GmbH, priority 2017, dated 2022).
Read-outs that look alike come from different tables or passages of the source.

Assays:
[1] = target: RPS6KB1 (p70S6K) (Homo sapiens, UniProt P23443); assay: Z'-LYTE SelectScreen biochemical kinase assay RPS6KB1 (p70S6K)
Source text: Thermo Fisher Scientific SelectScreen™ Biochemical Kinase Profiling Service Z′-LYTE™ Screening Protocol and Assay Conditions Assay Theory
The […] biochemical assay employs a fluorescence-based, coupled-enzyme format and is based on the differential sensitivity of phosphorylated and non-phosphorylated peptides to proteolytic cleavage. The peptide substrate is labeled with two fluorophores—one at each end—that make up a FRET pair. In the primary reaction, the kinase transfers the gamma-phosphate of ATP to a single tyrosine, serine or threonine residue in a synthetic FRET-peptide. In the secondary reaction, a site-specific protease recognizes and cleaves non-phosphorylated FRET-peptides. Phosphorylation of FRET-peptides suppresses cleavage by the Development Reagent. Cleavage disrupts FRET between the donor (i.e., coumarin) and acceptor (i.e., fluorescein) fluorophores on the FRET-peptide, whereas uncleaved, phosphorylated FRET-peptides maintain FRET. A ratiometric method, which calculates the ratio (Emission Ratio=Coumarin emission (445 nm)/Fluorescein emission (520 nm)) of donor emission to acceptor emission after excitation of the donor fluorophore at 400 nm, is used to quantitate reaction progress, as shown in the equation below. A significant benefit of this ratiometric method for quantitating reaction progress is the elimination of well-to-well variations in FRET-peptide concentration and signal intensities. As a result, the assay yields very high Z′-factor values (>0.7) at a low percent phosphorylation. Both cleaved and uncleaved FRET-peptides contribute to the fluorescence signals and therefore to the Emission Ratio. The extent of phosphorylation of the FRET-peptide can be calculated from the Emission Ratio. The Emission Ratio will remain low if the FRET-peptide is phosphorylated (i.e., no kinase inhibition) and will be high if the FRET-peptide is non-phosphorylated (i.e., kinase inhibition).
The Test Compounds are screened in 1% DMSO (final) in the well. For 10 point titrations, 3-fold serial dilutions are conducted from the starting concentration of the customer's choosing.
All Peptide/Kinase Mixtures are diluted to a 2× working concentration in the appropriate Kinase Buffer (see section Kinase Specific Assay Conditions for a complete description).
All ATP Solutions are diluted to a 4× working concentration in Kinase Buffer (50 mM HEPES pH 7.5, 0.01% BRIJ-35, 10 mM MgCl2, 1 mM EGTA). ATP Km apparent is previously determined using a Z″-LYTE assay.
The Development Reagent is diluted in Development Buffer (see section Kinase-Specific Assay Conditions—Direct and Cascade for a complete description).
Bar-coded Corning, low volume NBS, black 384-well plate (Corning Cat. #4514) • 1. 100 nL—100× Test Compound in 100% DMSO • 2. 2.4 μL—Kinase buffer • 3. 5 μL—2× Peptide/Kinase Mixture • 4. 2.5 μL—4×ATP Solution • 5. 30—second plate shake • 6. 60—minute Kinase Reaction incubation at room temperature • 7. 5 μL—Development Reagent Solution • 8. 30—second plate shake • 9. 60—minute Development Reaction incubation at room temperature • 10. Read on fluorescence plate reader and analyze the data Z′-LYTE Assay Controls
SelectScreen Kinase Profiling Service uses XLfit from IDBS. The dose response curve is curve fit to model number 205 (sigmoidal dose-response model).
The 2×RPS6 KB1 (p70S6K)/Ser/Thr 07 mixture is prepared in 50 mM HEPES pH 7.5, 0.01% BRIJ-35, 10 mM MgCl2, 1 mM EGTA. The final 10 μL Kinase Reaction consists of 2.87-17.7 ng RPS6 KB1 (p70S6K) and 2 μM Ser/Thr 07 in 50 mM HEPES pH 7.5, 0.01% BRIJ-35, 10 mM MgCl2, 1 mM EGTA. After the 1 hour Kinase Reaction incubation, 5 μL of a 1:45000 dilution of Development Reagent A is added.

[2] = system: 15 kinases (ABL1, AURKA, CDK5/p35, CSF1R, FGFR1, FGFR2, FLT4, KDR, LYN B, MAP4K2, MAP4K4, PDGFRA, PTK2, RET, RPS6KB1); assay: Z'-LYTE SelectScreen biochemical kinase panel: count of kinases inhibited over all 15 kinases tested; details: 10 μmolar compound concentration; [ATP] Km app; out of 15 kinases tested
[3] = system: Aβ total; assay: Aβ total levels in H4 neuroglioma cells stably expressing human APP695 (MSD electrochemiluminescence); format: cell-based; details: selectivity ratio vs. Aβtotal
Method in brief: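 H4 cells expressing human APP695, plated near confluency, exposed 22 h at 37 °C to compounds over 30 μM–0.1 nM (0.5% DMSO final). Supernatant Aβ total quantified by MSD electrochemiluminescence immunoassay.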

[4] = system: panel of 15 kinases; assay: Z'-LYTE SelectScreen kinase panel: number of kinases with <40% inhibition; format: biochemical; details: of 15 kinases tested; 10 μmolar compound; ATP at Km app
[5] = 10 μmolar compound concentration, ATP at Km app, read-out: RPS6KB1 (p70S6K) inhibition

Sequence of RPS6KB1 (p70S6K) (P23443 whole entry): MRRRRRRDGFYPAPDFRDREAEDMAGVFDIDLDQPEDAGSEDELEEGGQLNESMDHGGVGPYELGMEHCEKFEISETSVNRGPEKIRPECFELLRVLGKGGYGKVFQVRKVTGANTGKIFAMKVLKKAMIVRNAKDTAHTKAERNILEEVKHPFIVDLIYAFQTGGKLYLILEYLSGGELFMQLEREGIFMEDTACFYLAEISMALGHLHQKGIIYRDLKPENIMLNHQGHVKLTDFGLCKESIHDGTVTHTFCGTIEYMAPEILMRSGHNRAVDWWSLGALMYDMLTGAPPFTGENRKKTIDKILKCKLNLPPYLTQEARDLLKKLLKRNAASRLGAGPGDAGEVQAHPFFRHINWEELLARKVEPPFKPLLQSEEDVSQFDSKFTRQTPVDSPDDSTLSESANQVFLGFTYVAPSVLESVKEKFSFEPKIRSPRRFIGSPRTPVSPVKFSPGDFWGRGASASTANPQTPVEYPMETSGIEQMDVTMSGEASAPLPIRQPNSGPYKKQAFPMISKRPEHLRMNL

Compound	inhibition at 10 µM [1, 5]	inhibition at 10 µM ([1]; read-out: % Inhibition mean)	No. of kinases with >80% inhibition [2]	Ratio AβTotal IC50/Aβ42 IC50 ([3]; prior art compounds, Table 4b)	inhibition at 10 µM ([1]; read-out: % Inhibition mean RPS6KB1 (p70S6K))	No. of kinases with <40% inhibition [4]	Ratio AβTotal IC50/Aβ42 IC50 ([3]; Table 4a)
CC1(C)NC(=O)c2ccc(Nc3nc4c(-c5cccc(F)c5)cccn4n3)cc21 [Cpd. 302 in WO09155551, reference compound]	> 80%	86%	15/15	1	–	–	–
Fc1cccc(-c2cccn3nc(Nc4ccc5[nH]cnc5c4)nc23)c1 [Cpd. 293 in WO09155551, reference compound]	> 80%	85%	15/15	1	–	–	–
CC1(C)C(=O)Nc2ccc(Nc3nc4c(-c5cccc(F)c5)cccn4n3)cc21 [Cpd. 263 in WO09155551, reference compound]	> 80%	93%	15/15	2	–	–	–
CCn1ncc2c1CCC(Nc1nc3c(-c4cccnc4OC)cccn3n1)C2 (stereo not shown) [Example 69, (1-Ethyl-4,5,6,7-tetrahydro-1H-indazol-5-yl)-[8-(2-methoxy-pyridin-3-yl)-[1,2,4]triazolo[1,5-a]pyridine-2-yl]-amine]	< 40%	–	–	–	31%	15/15	60
